Laboratory results taken from US20100056441A1, “Method for Inhibiting Angiogenesis” (priority 2006, published 2010).
Non-standard residues stand in square brackets, D forms with d. Residues, ends and D or L forms follow the SMILES beside them.

Columns and labels:
[1] = test system: mouse HCC cells; assay: Apoptosis in mouse liver tumors (H&E, TUNEL, activated caspase 3); format: in vivo; details: treated tumor-bearing mice
Text: Furthermore, these apoptotic tumor cells were not apparent in FoxM1 deficient livers in dsRNA (CKO) Mx-Cre Foxm1−/− mice (FIG. 3E-3G).
(§1) To measure apoptosis in mouse livers we used the Terminal Deoxynucleotidyl Transferase-mediated dUTP-biotin Nick End Labeling (TUNEL) assay on liver sections using the ApoTag Fluorescein in situ apoptosis detection kit from Intergen (Purchase, N.Y.) according to the manufacturer's recommendations. The mean number (±SD) of TUNEL- or DAPI-positive hepatocyte nuclei was calculated per 1000 cells or 200× field by counting the number of positive hepatocyte nuclei using five different 200× fields of liver tumor sections from male mice at the indicated times of DEN/PB exposure.

[2] = test system: HCC cells of ARF -/- Rosa 26 FoxM1b TG mice; assay: Apoptosis of HCC in ARF -/- Rosa26 FoxM1b TG mice (H&E, TUNEL); format: in vivo, mouse
Experimental: In order to determine the effective concentration of dose of the ARF peptide for efficient liver delivery, mice were subjected to IP injection of either 0.1, 1, 5 or 10 mg/Kg body weight of TMR fluorescently tagged WT ARF 26-44 peptide, and were sacrificed 24 hours later, after which their livers were dissected, formalin fixed and paraffin embedded. Liver sections were treated with Xylene to remove paraffin wax and then examined by fluorescent microscopy for red peptide fluorescence. This dose response curve determined that IP injection of either equal or greater than 5 mg/Kg body weight of TMR-fluorescently labeled WT ARF 26-44 peptide was detectable in cytoplasm and nucleolus of hepatocytes and in hepatic mesenchymal cells at 24 hours after injection (FIG. 4G). […]
as §1, with “exposure. […]” for “exposure.”

[3] = molecular target: T1, FoxM1b (Homo sapiens, UniProt Q08050); details: cited from earlier work
T1 sequence (Q08050 1-748 isoform Q08050-2): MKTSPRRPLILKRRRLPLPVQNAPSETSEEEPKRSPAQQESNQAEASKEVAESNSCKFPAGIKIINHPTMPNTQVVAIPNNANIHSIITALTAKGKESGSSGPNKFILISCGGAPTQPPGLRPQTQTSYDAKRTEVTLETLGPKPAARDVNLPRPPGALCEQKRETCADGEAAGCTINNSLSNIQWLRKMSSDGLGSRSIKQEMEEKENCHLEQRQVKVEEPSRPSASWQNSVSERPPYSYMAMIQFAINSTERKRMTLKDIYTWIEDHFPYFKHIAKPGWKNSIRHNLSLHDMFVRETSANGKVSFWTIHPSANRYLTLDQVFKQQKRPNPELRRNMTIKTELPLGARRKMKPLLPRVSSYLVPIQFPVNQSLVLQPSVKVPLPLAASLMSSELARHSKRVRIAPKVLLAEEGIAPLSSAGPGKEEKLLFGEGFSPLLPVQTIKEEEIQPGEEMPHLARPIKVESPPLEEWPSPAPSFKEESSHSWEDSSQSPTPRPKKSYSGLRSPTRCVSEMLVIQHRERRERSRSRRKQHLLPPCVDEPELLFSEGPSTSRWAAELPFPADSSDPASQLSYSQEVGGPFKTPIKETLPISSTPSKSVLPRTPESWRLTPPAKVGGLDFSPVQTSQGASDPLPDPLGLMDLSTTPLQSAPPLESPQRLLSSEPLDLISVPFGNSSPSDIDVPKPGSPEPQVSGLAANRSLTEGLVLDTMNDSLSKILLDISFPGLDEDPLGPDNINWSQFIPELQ

Row | Compound | activated caspase 3 staining in adjacent normal liver tissue [1] | red staining cells in surrounding normal liver tissue (H&E) [1] | TUNEL-positive cells in adjacent normal liver tissue [2] | inhibition of FoxM1B activity [3]
1 | CC(C)C[C@H](NC(=O)[C@H](C)NC(=O)[C@H](CS)NC(=O)[C@H](CO)NC(=O)[C@H](C)NC(=O)[C@@H](NC(=O)[C@H](CCCNC(=N)N)NC(=O)[C@@H]1CCCN1C(=O)[C@H](CCCNC(=N)N)NC(=O)[C@H](CCCNC(=N)N)NC(=O)[C@H](CO)NC(=O)[C@H](CCCNC(=N)N)NC(=O)[C@@H](NC(=O)[C@H](Cc1ccccc1)NC(=O)[C@H](CCCCN)NC(=O)[C@@H](CCCNC(=N)N)NC(=O)[C@@H](CCCNC(=N)N)NC(=O)[C@@H](CCCNC(=N)N)NC(=O)[C@@H](CCCNC(=N)N)NC(=O)[C@@H](CCCNC(=N)N)NC(=O)[C@@H](CCCNC(=N)N)NC(=O)[C@@H](CCCNC(=N)N)NC(=O)[C@@H](CCCNC(=N)N)NC(=O)[C@H](N)CCCNC(=N)N)C(C)C)[C@@H](C)O)C(=O)N[C@@H](C)C(=O)N[C@@H](Cc1ccccc1)C(=O)N[C@H](C(=O)N[C@@H](CC(N)=O)C(=O)O)C(C)C [WT ARF 26-44 peptide, rrrrrrrrrKFVRSRRPRTASCALAFVN] (H-[dR][dR][dR][dR][dR][dR][dR][dR][dR]KFVRSRRPRTASCALAFVN-OH; N-terminus and C-terminus assumed) | no pro-apoptotic staining in the adjacent normal liver tissue | neither in the surrounding normal liver tissue | not detected in adjacent normal liver tissue | –
2 | KFVRSRRPRTASCALAFVN (listed as Homo sapiens) [p19ARF26-44 peptide, amino acids 26-44 of the p19ARF tumor suppressor protein] | – | – | – | sufficient in inhibiting FoxM1B activity
